Data taken from ChEMBL document CHEMBL4418495, “Entpd5 inhibitors” (2012).
Active and inactive are the calls of the source. How the calls were made is not given here.

Molecular target: T1, Nucleoside diphosphate phosphatase ENTPD5 (Homo sapiens) (UniProt O75356)
T1 sequence (whole entry): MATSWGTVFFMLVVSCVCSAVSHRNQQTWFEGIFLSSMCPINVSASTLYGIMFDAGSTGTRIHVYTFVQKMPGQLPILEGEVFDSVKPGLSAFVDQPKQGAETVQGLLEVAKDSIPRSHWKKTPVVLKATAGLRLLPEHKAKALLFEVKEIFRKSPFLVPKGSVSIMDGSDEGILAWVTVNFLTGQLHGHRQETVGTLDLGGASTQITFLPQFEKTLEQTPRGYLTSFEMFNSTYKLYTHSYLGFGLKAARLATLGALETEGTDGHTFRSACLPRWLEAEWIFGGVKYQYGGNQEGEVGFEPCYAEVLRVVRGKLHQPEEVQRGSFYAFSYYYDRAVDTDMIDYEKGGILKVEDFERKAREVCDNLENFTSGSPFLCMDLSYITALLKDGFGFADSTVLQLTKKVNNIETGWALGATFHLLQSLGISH
Assay: Inhibition of human recombinant ENTPD5 expressed in insect cells assessed as reduction in UDP hydrolysis at 1 uM incubated for 1 hr in presence of UMP, GTP and ATP by Escherichia coli UMP kinase pyrH catalyzed UMP phosphorylation coupled luciferase assay

inhibition	Compound
Active	COc1cc(-c2ccc(/C=C3\SC(=N)N(c4nccs4)C3=O)o2)c(OC)cc1Cl
Active	O=c1cc(-c2ccco2)nc(-c2ccco2)o1
Active	CCOc1cc(/C=C2\SC(=S)NC2=O)cc(Br)c1OCc1cccc2ccccc12
Active	O=C1S/C(=C/c2ccco2)C(=O)N1c1ccc(Cl)cc1
Active	NC(=O)c1cc2cc(Br)ccc2o/c1=N\c1cc(C(F)(F)F)ccc1N1CCCCC1
Active	N#CC1=C(N)NC(SCC(=O)c2cc3ccccc3oc2=O)=C(C#N)C1=C1C=CC(=O)C=C1
Active	CC(=O)c1ccc(-c2ccc(/C=C3\C(=O)NC(=S)N(c4ccc(Br)cc4)C3=O)o2)cc1
Active	O=C(CSc1nc2c([nH]c3ccccc32)c(=O)n1-c1ccccc1)N1CCN(c2ccccc2)CC1
Active	N#CC1=C(N)n2c(s/c(=C\c3cc(Br)ccc3O)c2=O)=C(C#N)C1c1cc(Br)ccc1O (stereo not given)
Active	O=C1NC(=S)N(c2ccccc2F)C(=O)/C1=C/c1cccn1-c1ccc(Cl)cc1
Active	COc1cc(/C=C2/SC(=S)N(C3CCCCC3)C2=O)cc(Cl)c1O
Active	O=C(/C=C/c1ccco1)/C=C/c1ccc(-c2ccc(Br)cc2)o1
Active	O=[N+]([O-])c1cccc(C2C3CC=CC3c3cc([N+](=O)[O-])cc4c3N2CC2CC=CC42)c1 (stereo not given)
Active	Cc1ccc(N2C(=O)/C(=C/c3cc(Br)cc(I)c3O)C(=O)NC2=S)cc1C
Active	O=C1Nc2ccc(Br)cc2/C1=C1/SC(=S)N(c2ccc(Cl)cc2)C1=O

Molecular target: T1, Nucleoside diphosphate phosphatase ENTPD5 (Homo sapiens)
Assay: Inhibition of human recombinant ENTPD5 expressed in insect cells assessed as reduction in reduction in UDP hydrolysis by measuring inorganic phosphate release incubated for 1 hr by malachite green based assay

inhibition	Compound
Active	COc1cc(-c2ccc(/C=C3\SC(=N)N(c4nccs4)C3=O)o2)c(OC)cc1Cl
Active	O=c1cc(-c2ccco2)nc(-c2ccco2)o1
Active	CCOc1cc(/C=C2\SC(=S)NC2=O)cc(Br)c1OCc1cccc2ccccc12
Active	O=C1S/C(=C/c2ccco2)C(=O)N1c1ccc(Cl)cc1
Active	NC(=O)c1cc2cc(Br)ccc2o/c1=N\c1cc(C(F)(F)F)ccc1N1CCCCC1
Active	N#CC1=C(N)NC(SCC(=O)c2cc3ccccc3oc2=O)=C(C#N)C1=C1C=CC(=O)C=C1
Active	CC(=O)c1ccc(-c2ccc(/C=C3\C(=O)NC(=S)N(c4ccc(Br)cc4)C3=O)o2)cc1
Active	O=C(CSc1nc2c([nH]c3ccccc32)c(=O)n1-c1ccccc1)N1CCN(c2ccccc2)CC1
Active	N#CC1=C(N)n2c(s/c(=C\c3cc(Br)ccc3O)c2=O)=C(C#N)C1c1cc(Br)ccc1O (stereo not given)
Active	O=C1NC(=S)N(c2ccccc2F)C(=O)/C1=C/c1cccn1-c1ccc(Cl)cc1
Active	COc1cc(/C=C2/SC(=S)N(C3CCCCC3)C2=O)cc(Cl)c1O
Active	O=C(/C=C/c1ccco1)/C=C/c1ccc(-c2ccc(Br)cc2)o1
Active	O=[N+]([O-])c1cccc(C2C3CC=CC3c3cc([N+](=O)[O-])cc4c3N2CC2CC=CC42)c1 (stereo not given)
Active	Cc1ccc(N2C(=O)/C(=C/c3cc(Br)cc(I)c3O)C(=O)NC2=S)cc1C
Active	O=C1Nc2ccc(Br)cc2/C1=C1/SC(=S)N(c2ccc(Cl)cc2)C1=O

Molecular target: T1, Nucleoside diphosphate phosphatase ENTPD5 (Homo sapiens)
Assay: Inhibition of human recombinant ENTPD5 expressed in insect cells assessed as reduction in UDP hydrolysis up to 10 uM incubated for 1 hr in presence of UMP, GTP and ATP by Escherichia coli UMP kinase pyrH catalyzed UMP phosphorylation coupled luciferase assay

inhibition	Compound
Dose-dependent effect	COc1cc(-c2ccc(/C=C3\SC(=N)N(c4nccs4)C3=O)o2)c(OC)cc1Cl
Dose-dependent effect	O=c1cc(-c2ccco2)nc(-c2ccco2)o1
Dose-dependent effect	CCOc1cc(/C=C2\SC(=S)NC2=O)cc(Br)c1OCc1cccc2ccccc12
Dose-dependent effect	O=C1S/C(=C/c2ccco2)C(=O)N1c1ccc(Cl)cc1
Dose-dependent effect	NC(=O)c1cc2cc(Br)ccc2o/c1=N\c1cc(C(F)(F)F)ccc1N1CCCCC1
Dose-dependent effect	N#CC1=C(N)NC(SCC(=O)c2cc3ccccc3oc2=O)=C(C#N)C1=C1C=CC(=O)C=C1
Dose-dependent effect	CC(=O)c1ccc(-c2ccc(/C=C3\C(=O)NC(=S)N(c4ccc(Br)cc4)C3=O)o2)cc1
Dose-dependent effect	O=C(CSc1nc2c([nH]c3ccccc32)c(=O)n1-c1ccccc1)N1CCN(c2ccccc2)CC1
Dose-dependent effect	N#CC1=C(N)n2c(s/c(=C\c3cc(Br)ccc3O)c2=O)=C(C#N)C1c1cc(Br)ccc1O (stereo not given)
Dose-dependent effect	O=C1NC(=S)N(c2ccccc2F)C(=O)/C1=C/c1cccn1-c1ccc(Cl)cc1
Dose-dependent effect	COc1cc(/C=C2/SC(=S)N(C3CCCCC3)C2=O)cc(Cl)c1O
Dose-dependent effect	O=C(/C=C/c1ccco1)/C=C/c1ccc(-c2ccc(Br)cc2)o1
Dose-dependent effect	O=[N+]([O-])c1cccc(C2C3CC=CC3c3cc([N+](=O)[O-])cc4c3N2CC2CC=CC42)c1 (stereo not given)
Dose-dependent effect	Cc1ccc(N2C(=O)/C(=C/c3cc(Br)cc(I)c3O)C(=O)NC2=S)cc1C
Dose-dependent effect	O=C1Nc2ccc(Br)cc2/C1=C1/SC(=S)N(c2ccc(Cl)cc2)C1=O

Molecular target: T2, Uridylate kinase (Escherichia coli (strain K12)) (UniProt P0A7E9)
T2 sequence (whole entry): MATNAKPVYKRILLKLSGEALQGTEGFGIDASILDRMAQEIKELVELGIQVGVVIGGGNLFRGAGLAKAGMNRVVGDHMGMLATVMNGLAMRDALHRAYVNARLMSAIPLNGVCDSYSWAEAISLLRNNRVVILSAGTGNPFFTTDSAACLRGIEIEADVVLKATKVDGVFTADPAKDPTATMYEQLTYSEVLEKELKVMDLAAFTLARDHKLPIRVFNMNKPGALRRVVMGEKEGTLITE
Assay: Inhibition of recombinant Escherichia coli UMP kinase pyrH catalyzed UMP phosphorylation in presence of GTP and ATP incubated for 1 hr by luminescence based assay

inhibition	Compound
inactive	COc1cc(-c2ccc(/C=C3\SC(=N)N(c4nccs4)C3=O)o2)c(OC)cc1Cl
inactive	O=c1cc(-c2ccco2)nc(-c2ccco2)o1
inactive	CCOc1cc(/C=C2\SC(=S)NC2=O)cc(Br)c1OCc1cccc2ccccc12
inactive	O=C1S/C(=C/c2ccco2)C(=O)N1c1ccc(Cl)cc1
inactive	NC(=O)c1cc2cc(Br)ccc2o/c1=N\c1cc(C(F)(F)F)ccc1N1CCCCC1
inactive	N#CC1=C(N)NC(SCC(=O)c2cc3ccccc3oc2=O)=C(C#N)C1=C1C=CC(=O)C=C1
inactive	CC(=O)c1ccc(-c2ccc(/C=C3\C(=O)NC(=S)N(c4ccc(Br)cc4)C3=O)o2)cc1
inactive	O=C(CSc1nc2c([nH]c3ccccc32)c(=O)n1-c1ccccc1)N1CCN(c2ccccc2)CC1
inactive	N#CC1=C(N)n2c(s/c(=C\c3cc(Br)ccc3O)c2=O)=C(C#N)C1c1cc(Br)ccc1O (stereo not given)
inactive	O=C1NC(=S)N(c2ccccc2F)C(=O)/C1=C/c1cccn1-c1ccc(Cl)cc1
inactive	COc1cc(/C=C2/SC(=S)N(C3CCCCC3)C2=O)cc(Cl)c1O
inactive	O=C(/C=C/c1ccco1)/C=C/c1ccc(-c2ccc(Br)cc2)o1
inactive	O=[N+]([O-])c1cccc(C2C3CC=CC3c3cc([N+](=O)[O-])cc4c3N2CC2CC=CC42)c1 (stereo not given)
inactive	Cc1ccc(N2C(=O)/C(=C/c3cc(Br)cc(I)c3O)C(=O)NC2=S)cc1C
inactive	O=C1Nc2ccc(Br)cc2/C1=C1/SC(=S)N(c2ccc(Cl)cc2)C1=O
